Reference: US6750239B2, “Pyrazole-derived kinase inhibitors and uses thereof” (Vertex Pharmaceuticals Incorporated, priority 2001, dated 2004)
pKi: −log10 of the molar value.

Each molecule was assayed against activated ERK2 (Homo sapiens, UniProt P28482) (assay: ERK2 inhibition spectrophotometric coupled-enzyme assay). Conditions: not given.
Sequence of activated ERK2 (P28482 whole entry): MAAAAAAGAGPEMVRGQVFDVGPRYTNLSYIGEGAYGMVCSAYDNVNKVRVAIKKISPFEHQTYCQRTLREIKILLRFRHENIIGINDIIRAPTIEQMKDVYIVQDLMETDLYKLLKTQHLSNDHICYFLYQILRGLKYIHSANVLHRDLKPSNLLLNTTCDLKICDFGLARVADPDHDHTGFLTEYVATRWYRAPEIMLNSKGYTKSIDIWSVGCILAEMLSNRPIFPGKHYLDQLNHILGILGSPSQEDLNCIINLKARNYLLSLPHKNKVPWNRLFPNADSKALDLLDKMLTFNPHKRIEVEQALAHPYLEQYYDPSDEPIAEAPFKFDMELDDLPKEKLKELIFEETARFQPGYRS
Assay type: biochemical
Experimental: Compounds are assayed for the inhibition of ERK2 by a spectrophotometric coupled-enzyme assay (Fox et al (1998) Protein Sci 7, 2249). In this assay, a fixed concentration of activated ERK2 (10 nM) is incubated with various concentrations of the compound in DMSO (2.5%) for 10 min. at 30° C. in 0.1 M HEPES buffer, pH 7.5, containing 10 mM MgCl2, 2.5 mM phosphoenolpyruvate, 200 μM NADH, 150 μg/mL pyruvate kinase, 50 μg/mL lactate dehydrogenase, and 200 μM erktide peptide. The reaction is initiated by the addition of 65 μM ATP. The rate of decrease of absorbance at 340 nm is monitored, which indicates the extent of uninhibited enzyme present in the assay. The IC50 is evaluated from the rate data as a function of inhibitor concentration.
The compound numbers correspond to the compound numbers in Tables 1-3.
Work on `O=C(N[C@H](CO)c1ccc(F)c(Cl)c1)c1cc(-c2[nH]ncc2-c2ccc(CN(CCCl)CCCl)c(Cl)c2)c[nH]1` [II-36] yielded a pKi of over 6.00. `O=C(N[C@H](CO)c1ccc(F)c(Cl)c1)c1cc(-c2[nH]ncc2-c2ccc(CNCCCl)c(Cl)c2)c[nH]1` [II-35] was tested, and the pKi was over 6.00.

Same assay, conditions: activated ERK2 10 nM, 65 μM ATP, 30° C., pH 7.5; read-out: ERK2 Inhibitory Activity (Ki class)
Molecule `CCOC(=O)CN(C)Cc1ccc(-c2cn[nH]c2-c2c[nH]c(C(=O)N[C@H](CO)c3ccc(F)c(Cl)c3)c2)cc1Cl` [II-83] has a pKi of over 6.00. `CC(CC(=O)N(C)C)NCc1ccc(-c2cn[nH]c2-c2c[nH]c(C(=O)N[C@H](CO)c3ccc(F)c(Cl)c3)c2)cc1Cl` (some centres unmarked) [II-52] showed a pKi of over 6.00. `CC(C(=O)O)N(C)Cc1ccc(-c2cn[nH]c2-c2c[nH]c(C(=O)N[C@H](CO)c3ccc(F)c(Cl)c3)c2)cc1C(F)(F)F` (some centres unmarked) [II-58] showed a pKi of over 6.00. `CCOC(=O)C(C)N(C)Cc1ccc(-c2cn[nH]c2-c2c[nH]c(C(=O)N[C@H](CO)c3ccc(F)c(Cl)c3)c2)cc1Cl` (some centres unmarked) [II-63] showed a pKi of over 6.00. Molecule `C[C@H](N)C(=O)NCc1ccc(-c2cn[nH]c2-c2c[nH]c(C(=O)N[C@H](CO)c3ccc(F)c(Cl)c3)c2)cc1Cl` [II-69] has a pKi of over 6.00. `CCN(CC)C(=O)CNCc1ccc(-c2cn[nH]c2-c2c[nH]c(C(=O)N[C@H](CO)c3ccc(F)c(Cl)c3)c2)cc1Cl` [II-80] showed a pKi of over 6.00. `CCOC(=O)C(C)NCc1ccc(-c2cn[nH]c2-c2c[nH]c(C(=O)N[C@H](CO)c3ccc(F)c(Cl)c3)c2)cc1Cl` (some centres unmarked) [II-55] gave a pKi of over 6.00. `CCN(CC)C(=O)CN(CC(=O)N(CC)CC)Cc1ccc(-c2cn[nH]c2-c2c[nH]c(C(=O)N[C@H](CO)c3ccc(F)c(Cl)c3)c2)cc1Cl` [II-86] showed a pKi of over 6.00. Work on `O=C(CCCO)NCc1ccc(-c2c[nH]nc2-c2c[nH]c(C(=O)NC(CO)c3ccc(F)c(Cl)c3)c2)cc1Cl` (centres unmarked) [II-8, 4-(4-{3-Chloro-4-[(4-hydroxy-butyrylamino)-methyl]-phenyl}-1H-pyrazol-3-yl)-1H-pyrrole-2-carboxylic acid [1-(3-chloro-4-fluoro-phenyl)-2-hydroxy-ethyl]-amide] yielded a pKi of over 6.00. Molecule `CCOC(=O)CNCc1ccc(-c2c[nH]nc2-c2c[nH]c(C(=O)N[C@H](CO)c3ccc(F)c(Cl)c3)c2)cc1Cl` [II-29] has a pKi of over 6.00. `NC(=O)CNCc1ccc(-c2cn[nH]c2-c2c[nH]c(C(=O)N[C@H](CO)c3ccc(F)c(Cl)c3)c2)cc1Cl` [II-76] was tested, and the pKi was over 6.00. With `CC(NCc1ccc(-c2cn[nH]c2-c2c[nH]c(C(=O)N[C@H](CO)c3ccc(F)c(Cl)c3)c2)cc1C(F)(F)F)C(=O)N(C)C` (some centres unmarked) [II-60] the pKi was over 6.00. For `CCCCN(CCCC)Cc1ccc(-c2cn[nH]c2-c2c[nH]c(C(=O)N[C@H](CO)c3ccc(F)c(Cl)c3)c2)cc1Cl` [II-23], the pKi was over 6.00. Molecule `CCC(=O)CNCc1ccc(-c2cn[nH]c2-c2c[nH]c(C(=O)N[C@H](CO)c3ccc(F)c(Cl)c3)c2)cc1Cl` [II-53] has a pKi of over 6.00. Work on `CNC(=O)C(C)NCc1ccc(-c2cn[nH]c2-c2c[nH]c(C(=O)N[C@H](CO)c3ccc(F)c(Cl)c3)c2)cc1C(F)(F)F` (some centres unmarked) [II-65] yielded a pKi of over 6.00. “4-{4-[3-Chloro-4-(methanesulfonylamino-methyl)-phenyl]-1H-pyrazol-3-yl}-1H-pyrrole-2-carboxylic acid [1-(3-chloro-4-fluoro-phenyl)-2-hydroxy-ethyl]-amide [II-2]” gave a pKi of over 6.00. `CCN(CC)Cc1ccc(-c2cn[nH]c2-c2c[nH]c(C(=O)N[C@H](CO)c3ccc(F)c(Cl)c3)c2)cc1Cl` [II-34] gave a pKi of over 6.00. In the case of `CC(C)(C)OC(=O)N[C@H](CO)C(=O)NCc1ccc(-c2cn[nH]c2-c2c[nH]c(C(=O)NC(CO)c3ccc(F)c(Cl)c3)c2)cc1Cl` (some centres unmarked) [II-17], the pKi was over 6.00. `CCOC(=O)CC(C)NCc1ccc(-c2cn[nH]c2-c2c[nH]c(C(=O)N[C@H](CO)c3ccc(F)c(Cl)c3)c2)cc1Cl` (some centres unmarked) [II-72] gave a pKi of over 6.00. In the case of `CC(C)NCc1ccc(-c2cn[nH]c2-c2c[nH]c(C(=O)N[C@H](CO)c3ccc(F)c(Cl)c3)c2)cc1C(F)(F)F` [II-57], the pKi was over 6.00. In the case of `CC(=O)N[C@@H](CS)C(=O)NCc1ccc(-c2cn[nH]c2-c2c[nH]c(C(=O)NC(CO)c3ccc(F)c(Cl)c3)c2)cc1Cl` (some centres unmarked) [II-12], the pKi was over 6.00. `CC(NCc1ccc(-c2cn[nH]c2-c2c[nH]c(C(=O)N[C@H](CO)c3ccc(F)c(Cl)c3)c2)cc1Cl)C(=O)N(C)C` (some centres unmarked) [II-66] showed a pKi of over 6.00. Work on `N[C@H](CO)C(=O)NCc1ccc(-c2cn[nH]c2-c2c[nH]c(C(=O)NC(CO)c3ccc(F)c(Cl)c3)c2)cc1Cl` (some centres unmarked) [II-18] yielded a pKi of over 6.00. `CN(C)CC(=O)NCc1ccc(-c2cn[nH]c2-c2c[nH]c(C(=O)NC(CO)c3ccc(F)c(Cl)c3)c2)cc1Cl` (centres unmarked) [II-13] showed a pKi of over 6.00. Work on `CCN(CC)CCNCc1ccc(-c2cn[nH]c2-c2c[nH]c(C(=O)N[C@H](CO)c3ccc(F)c(Cl)c3)c2)cc1Cl` [II-82] yielded a pKi of over 6.00. `O=C(N[C@H](CO)c1ccc(F)c(Cl)c1)c1cc(-c2[nH]ncc2-c2ccc(CNCCO)c(Cl)c2)c[nH]1` [II-30] was tested, and the pKi was over 6.00. With `CC(O)CNCc1ccc(-c2cn[nH]c2-c2c[nH]c(C(=O)N[C@H](CO)c3ccc(F)c(Cl)c3)c2)cc1Cl` (some centres unmarked) [II-31] the pKi was over 6.00. `CC(=O)NC(CO)C(=O)NCc1ccc(-c2c[nH]nc2-c2c[nH]c(C(=O)N[C@H](CO)c3ccc(F)c(Cl)c3)c2)cc1Cl` (stereo in doubt) [II-20, 4-(4-{4-[(2-Acetylamino-3-hydroxy-propionylamino)-methyl]-3-chloro-phenyl}-1H-pyrazol-3-yl)-1H-pyrrole-2-carboxylic acid [1-(3-chloro-4-fluoro-phenyl)-2-hydroxy-ethyl]-amide] was tested, and the pKi was over 6.00. `CC(C(=O)N(C)C)N(C)Cc1ccc(-c2cn[nH]c2-c2c[nH]c(C(=O)N[C@H](CO)c3ccc(F)c(Cl)c3)c2)cc1C(F)(F)F` (some centres unmarked) [II-61] showed a pKi of over 6.00. For `CNC(=O)C(C)N(C)Cc1ccc(-c2cn[nH]c2-c2c[nH]c(C(=O)N[C@H](CO)c3ccc(F)c(Cl)c3)c2)cc1C(F)(F)F` (some centres unmarked) [II-59], the pKi was over 6.00. `CC(C)(C)OC(=O)NCCNCc1ccc(-c2cn[nH]c2-c2c[nH]c(C(=O)N[C@H](CO)c3ccc(F)c(Cl)c3)c2)cc1Cl` [II-37] showed a pKi of over 6.00. Molecule `CCOC(=O)CN(CC(=O)OCC)Cc1ccc(-c2cn[nH]c2-c2c[nH]c(C(=O)N[C@H](CO)c3ccc(F)c(Cl)c3)c2)cc1Cl` [II-84] has a pKi of over 6.00. `CCCCNCc1ccc(-c2cn[nH]c2-c2c[nH]c(C(=O)N[C@H](CO)c3ccc(F)c(Cl)c3)c2)cc1Cl` [II-22] gave a pKi of over 6.00. For `N[C@H](CO)C(=O)NCc1ccc(-c2cn[nH]c2-c2c[nH]c(C(=O)N[C@H](CO)c3ccc(F)c(Cl)c3)c2)cc1Cl` [II-56], the pKi was over 6.00. With `CCN(CC)CC(=O)NCc1ccc(-c2cn[nH]c2-c2c[nH]c(C(=O)N[C@H](CO)c3ccc(F)c(Cl)c3)c2)cc1Cl` [II-38] the pKi was over 6.00. Work on `CCC(=O)CN(CC(=O)CC)Cc1ccc(-c2cn[nH]c2-c2c[nH]c(C(=O)N[C@H](CO)c3ccc(F)c(Cl)c3)c2)cc1Cl` [II-73] yielded a pKi of over 6.00. `CCOC(=O)C(C)NCc1ccc(-c2cn[nH]c2-c2c[nH]c(C(=O)N[C@H](CO)c3ccc(F)c(Cl)c3)c2)cc1C(F)(F)F` (some centres unmarked) [II-62] was tested, and the pKi was over 6.00. `CCNC(=O)CNCc1ccc(-c2cn[nH]c2-c2c[nH]c(C(=O)N[C@H](CO)c3ccc(F)c(Cl)c3)c2)cc1Cl` [II-71] showed a pKi of over 6.00. Molecule `O=C(O)CNCc1ccc(-c2cn[nH]c2-c2c[nH]c(C(=O)N[C@H](CO)c3ccc(F)c(Cl)c3)c2)cc1Cl` [II-81] has a pKi of over 6.00. With `CC(C)NCc1ccc(-c2cn[nH]c2-c2c[nH]c(C(=O)N[C@H](CO)c3ccc(F)c(Cl)c3)c2)cc1Cl` [II-70] the pKi was over 6.00. `N[C@@H](CO)C(=O)NCc1ccc(-c2cn[nH]c2-c2c[nH]c(C(=O)NC(CO)c3ccc(F)c(Cl)c3)c2)cc1Cl` (some centres unmarked) [II-15] showed a pKi of over 6.00. `O=C(CCO)NCc1ccc(-c2cn[nH]c2-c2c[nH]c(C(=O)N[C@H](CO)c3ccccc3)c2)cc1Cl` [II-4] showed a pKi of over 6.00. With `N[C@@H](CO)C(=O)NCc1ccc(-c2cn[nH]c2-c2c[nH]c(C(=O)N[C@H](CO)c3ccc(F)c(Cl)c3)c2)cc1Cl` [II-75] the pKi was over 6.00. `C[C@@H](O)[C@H](N)C(=O)NCc1ccc(-c2cn[nH]c2-c2c[nH]c(C(=O)N[C@H](CO)c3ccc(F)c(Cl)c3)c2)cc1Cl` [II-77] showed a pKi of over 6.00. In the case of `CCNC(=O)CN(CC(=O)NCC)Cc1ccc(-c2cn[nH]c2-c2c[nH]c(C(=O)N[C@H](CO)c3ccc(F)c(Cl)c3)c2)cc1Cl` [II-85], the pKi was over 6.00. Work on `CS(=O)(=O)CC(=O)NCc1ccc(-c2cn[nH]c2-c2c[nH]c(C(=O)N[C@H](CO)c3ccccc3)c2)cc1Cl` [II-1] yielded a pKi of over 6.00. For `CC(=O)N[C@@H](C)C(=O)NCc1ccc(-c2cn[nH]c2-c2c[nH]c(C(=O)NC(CO)c3ccc(F)c(Cl)c3)c2)cc1Cl` (some centres unmarked) [II-10], the pKi was over 6.00. For `CC(=O)NC(CC[S+](C)[O-])C(=O)NCc1ccc(-c2cn[nH]c2-c2c[nH]c(C(=O)NC(CO)c3ccc(F)c(Cl)c3)c2)cc1Cl` (centres unmarked) [II-16], the pKi was over 6.00. In the case of `C[S+]([O-])CC(=O)NCc1ccc(-c2cn[nH]c2-c2c[nH]c(C(=O)NC(CO)c3ccc(F)c(Cl)c3)c2)cc1Cl` (centres unmarked) [II-6], the pKi was over 6.00. Work on `CC(=O)N[C@H](C)C(=O)NCc1ccc(-c2cn[nH]c2-c2c[nH]c(C(=O)NC(CO)c3ccc(F)c(Cl)c3)c2)cc1Cl` (some centres unmarked) [II-11] yielded a pKi of over 6.00. With `CC(=O)NC(CCO)C(=O)NCc1ccc(-c2cn[nH]c2-c2c[nH]c(C(=O)NC(CO)c3ccc(F)c(Cl)c3)c2)cc1Cl` (centres unmarked) [II-5] the pKi was over 6.00. `N#CCNCc1ccc(-c2cn[nH]c2-c2c[nH]c(C(=O)N[C@H](CO)c3ccc(F)c(Cl)c3)c2)cc1Cl` [II-33] gave a pKi of over 6.00. Work on `CCOC(=O)C(C)N(C)Cc1ccc(-c2cn[nH]c2-c2c[nH]c(C(=O)N[C@H](CO)c3ccc(F)c(Cl)c3)c2)cc1C(F)(F)F` (some centres unmarked) [II-64] yielded a pKi of over 6.00. Molecule `CN(C)CCNCc1ccc(-c2cn[nH]c2-c2c[nH]c(C(=O)N[C@H](CO)c3ccc(F)c(Cl)c3)c2)cc1Cl` [II-79] has a pKi of over 6.00.
